In patent US20220296628A1, “RNA COMBINATIONS AND COMPOSITIONS WITH DECREASED IMMUNOSTIMULATORY PROPERTIES” (CureVac AG, priority 2019, published 2022):

What was measured:
human PBMCs = experiment: PBMC co-transfection of PpLuc mRNA and antagonists (Table 6), luciferase activity in cell lysate; format: cell-based; conditions: 24 hours post transfection, DOTAP, antagonist 20% weight, compared to PpLuc mRNA without admixture (FIG. 5B)
Protocol: The preparation of human PBMCs was performed according to example 2.1. For transfection experiments 2×10^5 human PBMCs per well were seeded into each well of a 96-well plate in X-Vivo 15 medium (Lonza). For preparation of DOTAP (vehicle) complexes containing both the antagonist (either 2-O-methylated oligonucleotide variants, RNA oligonucleotides, DNA oligonucleotides or small molecules) as well as PpLuc mRNA (SEQ ID NO: 82, same RNA design as shown in table 2), the antagonist was first added to PpLuc mRNA at a weight percentage of 20% (1:5 mRNA: oligo/small molecule). The molar ratio of PpLuc mRNA to antagonist was thus 1:45 (MW (Oligonucleotide)=2907 g/mol, MW (PpLuc mRNA)=652377 g/mol). DOTAP complexes containing PpLuc mRNA and antagonist were formed at a ratio of 5 μl of DOTAP per 1 μg of mRNA and 100 ng were transfected. […] To quantify background stimulation, PBMC were incubated either with DOTAP alone (“vehicle”) or RPMI (“medium”) only. […] Expression analysis was performed by measuring the luciferase activity, which is measured as relative light units (RLU) in a BioTek SynergyHT plate reader. PpLuc activity is measured at 5 seconds measuring time using 50 μl of lysate and 200 μl of luciferin buffer (75 μM luciferin, 25 mM Glycylglycin, pH 7.8 (NaOH), 15 mM MgSO4, 2 mM ATP).

[1] = system: human peripheral blood mononuclear cells (PBMCs); experiment: PBMC stimulation: DOTAP co-transfection of capped PpLuc mRNA with oligonucleotide, cytokines by CBA; format: cell-based; conditions: DOTAP co-transfection with capped PpLuc mRNA 1 μg/ml, oligonucleotide 0.25 μg/ml (25% weight), supernatant 24 hours, compared to PpLuc mRNA only (FIG. 1B)
Protocol: Human peripheral blood mononuclear cells (PBMCs) were isolated from heparinized blood of healthy volunteers by standard Ficoll-Hypaque density gradient centrifugation (Ficoll 1.078 g/ml). PBMCs were re-suspended in RPMI 1640 supplemented with 10% heat-inactivated FCS. After counting, cells are re-suspended at 50 million cells per ml in fetal calf serum, 10% DMSO, and frozen. Before usage, the cells are thawed.
For transfection experiments, 2×10^5 human PBMCs per well were seeded into each well of a 96-well plate in X-Vivo 15 medium (Lonza). For preparation of DOTAP complexes containing both immunostimulatory non-coding RNA and a 2′-O-methylated oligonucleotide (SEQ ID NO: 85), the oligonucleotide was first added to immunostimulatory non-coding RNA at a weight percentage of 25%. For preparation of DOTAP complexes containing both PpLuc mRNA and a 2′-O-methylated oligonucleotide, the oligonucleotide was first added to PpLuc mRNA at a weight percentage of 25%. The molar ratio of PpLuc mRNA to oligonucleotide was thus […] (MW (Oligonucleotide)=2907 g/mol, MW (PpLuc mRNA)=652377 g/mol). DOTAP complexes containing either immunostimulatory non-coding RNA or PpLuc mRNA without or with oligonucleotide were formed at a ratio of 3 μl of DOTAP per 1 μg of RNAdjuvant or 1 μg of mRNA. […] To quantify background stimulation, PBMC were incubated either with DOTAP alone (“vehicle”) or medium only. […]
In supernatants collected from PBMC stimulated without or with 2-O-methylated oligonucleotide, the concentrations of IFN-α, IFN-γ, TNF, were measured by Cytometric Bead Array (CBA) according to the manufacturer's instructions (BD Biosciences) using the following kits: Human Soluble Protein Master Buffer Kit (catalog no. 558264), Assay Diluent (catalog no. 560104), Human IFN-α Flex Set (catalog no. 560379), Human IFN-γ Flex Set (catalog no. 558269), Human TNF Flex Set (catalog no. 560112); all kits from BD Biosciences. The data was analyzed using the FCAP Array v3.0 software (BD Biosciences).

Substance: 5′-GAG CGmG CCA-3′ (GAGCNGCCA; 2'-O-methyl guanosine at position 5; 9mer oligonucleotide; modified_base (5)..(5) n can be any nucleotide, wherein the nucleotide is 2-O-methylated, preferably a 2-O-methylated guanosine) [Gm18, 9-mer 2′-O-methylated RNA oligonucleotide; position 5 is 2′-O-methylated guanosine (Gm); antagonist of TLR7 and 8]
- expression of PpLuc in PBMCs (human PBMCs): increases the expression
- secretion of cytokine INF-a [1]: reduced secretion
- secretion of cytokine INF-y [1]: reduced secretion
- secretion of cytokine TNF [1]: reduced secretion
